Results on one substance are retold here after patent US20240165196A1, “Beta-Lactamase Inhibitors” (VIB VZW, priority 2021, published 2024).

Series [1] concerns primary Human Umbilical Vein Endothelial Cells (HUVEC). It counts as cell-based.
Another series relates to human erythrocytes. The class given is cell-based. From the text: FIGS. 4A-4K. […] IV—Intravenous, IP—Intraperitoneal, SC—Subcutaneously. The data shown is from a single experiment with 4 animals per group. […] (ns—non significant, #—P>0.05, *—P≤0.05, ***—P≤0.01, ****—P≤0.001). (FIG. 4G) FICI plot as in FIG. 2, for the E. coli strains indicated and the combination of penicillin and the TEM3.2 peptide. […] (FIG. 4J) Same as FIG. 4H for peptide BGAL. (FIG. 4K) Same as FIG. 4H for peptide P33.
Given this broad activity on clinical isolates, we wondered if the TEM3.2 peptide could be used to re-sensitize bacteria to ampicillin treatment in vivo, in a mouse Urinary Tract Infection (UTI) model.
EDTA was used as the anticoagulant. […] Plate centrifuged for 10 min at 3000×g. […] Erythrocytes in 1% Triton and maximum used concentration of buffer were used as the control of 100% and 0% hemolysis, respectively.

Another series has as its system E. coli UZ_TEM104. In words: FACS analysis with Propidium Iodide and pFTAA. The class given is cell-based. Here is the method:
FIGS. 3A-3P. […] Three replicates are shown for each condition. […] A single representative image is shown. […] Three replicates are shown for each condition. (FIG. 3E) [Left] […] [Middle] […] [Right] […] A single representative image is shown. […] A single representative image is shown. […] A single representative image is shown. […] A single representative blot is shown. […] 106 cells were analysed for the plot.
First, we tested the assay using a mixture of live and heat inactivated (FIG. 3L) or just live bacteria (FIG. 3M), showing that heat inactivated, but not live bacteria are stained with PI, and neither are stained with pFTAA.
Bacterial cells in the cleaned suspensions were stained with both propidium iodide (PI) and FITC peptide to evaluate the killing rate and peptide uptake in a two-dimensional analysis. […] Treated bacteria washed with PBS buffer two times. One microliter of PI (Invitrogen) was added to the bacteria and incubated for 5 min. The bacteria were used by FACS tubes for 40000 events. To correlate the activity of the peptides with cell death, the fluorescence intensity was measured in two channels using the Gallios™ Flow Cytometer (Beckman Coulter, USA), PI: excitation 536 nm and emission 617 nm, FITC: excitation 490 nm and emission 525 nm. Heated bacteria at 90° C. for 10 min were used as PI-positive control.
A general note: A flow cytometer gives signals particle by particle.

Series [2] deals with 16 additional E. coli clinical isolates containing TEM or SHV enzymes. In words: MIC of ampicillin with fixed 30 μg/ml TEM3.2, isolate panel summary. The class given is cell-based. Particulars: 14 out of 16 isolates. Here is the method:
Moreover, the core sequence of peptide TEM3.0 also occurs in the structurally related SHV β-lactamase (FIG. 2E). Although the C-terminal extension residues H and N have been replaced with physicochemically similar R and Q, respectively (FIG. 2H). […] To quantify the synergy between these four peptides and penicillin G, we performed a so-called checkerboard assay, which allows to compare the activity of two test compounds co-incubated (here peptide and a beta-lactam antibiotic), to their individual activities in isolation. The result from the assay is quantified as the Fractional Inhibitory Concentration Index (FICI), and it is generally accepted that values below 0.5 indicate synergistic effects between the compounds. […] We evaluated the synergy of the peptides with penicillin G in clinical E. coli isolates carrying the TEM (FIG. 2I) or SHV enzymes (FIG. 2J). […]
Determination of MIC values using the broth microdilution in the 96-well plate (BD Biosciences, Belgium) according to the EUCAST guideline, which was performed in 96-well polystyrene flat bottom microtiter plates (BD Biosciences). […] OD was measured at 590 nm a multipurpose ultraviolet-visible plate reader, and the absorbance of the growth bacteria was measured using absorbance reader. Bacterial growth was also visually inspected and agreed well with the OD reading.

Another series relates to SH-SY5Y. It counts as cell-based, human.

As for Ac-RLTAFLHNRRPRLTAFLRQRR-NH2 [TEM3.2], the “cytotoxicity (Cell Titer Blue)” value (in series [1]; with SH-SY5Y) was “not cytotoxic” each time. Besides, in the series with human erythrocytes, the “hemolysis of human erythrocytes” value is reported as “not hemolytic”. The “cells with non-lethal aggregation (shift only in pFTAA channel)” value with E. coli UZ_TEM104 (50 μg/mL TEM3.2 in PBS, 4 h) is recorded as more than 99%. Moreover, in the series with E. coli UZ_TEM104 (400 μg/mL penicillin G and 50 μg/mL TEM3.2, 4 h), the “change in PI (cell death) and pFTAA (aggregation) channels” value is listed as “shift in both channels”. For the same substance, the “clinical isolates sensitized to ampicillin” value in series [2] came to 87%.
